For 29 compounds, IC50 results are on record in US10626112B2, “Heterocyclic sulfonamide derivative and medicine comprising same” (EA PHARMA CO., LTD., priority 2014, dated 2020).

The IC50 is the concentration that inhibits the measured activity by half.

human TRPA1, sequence (O75762 whole entry): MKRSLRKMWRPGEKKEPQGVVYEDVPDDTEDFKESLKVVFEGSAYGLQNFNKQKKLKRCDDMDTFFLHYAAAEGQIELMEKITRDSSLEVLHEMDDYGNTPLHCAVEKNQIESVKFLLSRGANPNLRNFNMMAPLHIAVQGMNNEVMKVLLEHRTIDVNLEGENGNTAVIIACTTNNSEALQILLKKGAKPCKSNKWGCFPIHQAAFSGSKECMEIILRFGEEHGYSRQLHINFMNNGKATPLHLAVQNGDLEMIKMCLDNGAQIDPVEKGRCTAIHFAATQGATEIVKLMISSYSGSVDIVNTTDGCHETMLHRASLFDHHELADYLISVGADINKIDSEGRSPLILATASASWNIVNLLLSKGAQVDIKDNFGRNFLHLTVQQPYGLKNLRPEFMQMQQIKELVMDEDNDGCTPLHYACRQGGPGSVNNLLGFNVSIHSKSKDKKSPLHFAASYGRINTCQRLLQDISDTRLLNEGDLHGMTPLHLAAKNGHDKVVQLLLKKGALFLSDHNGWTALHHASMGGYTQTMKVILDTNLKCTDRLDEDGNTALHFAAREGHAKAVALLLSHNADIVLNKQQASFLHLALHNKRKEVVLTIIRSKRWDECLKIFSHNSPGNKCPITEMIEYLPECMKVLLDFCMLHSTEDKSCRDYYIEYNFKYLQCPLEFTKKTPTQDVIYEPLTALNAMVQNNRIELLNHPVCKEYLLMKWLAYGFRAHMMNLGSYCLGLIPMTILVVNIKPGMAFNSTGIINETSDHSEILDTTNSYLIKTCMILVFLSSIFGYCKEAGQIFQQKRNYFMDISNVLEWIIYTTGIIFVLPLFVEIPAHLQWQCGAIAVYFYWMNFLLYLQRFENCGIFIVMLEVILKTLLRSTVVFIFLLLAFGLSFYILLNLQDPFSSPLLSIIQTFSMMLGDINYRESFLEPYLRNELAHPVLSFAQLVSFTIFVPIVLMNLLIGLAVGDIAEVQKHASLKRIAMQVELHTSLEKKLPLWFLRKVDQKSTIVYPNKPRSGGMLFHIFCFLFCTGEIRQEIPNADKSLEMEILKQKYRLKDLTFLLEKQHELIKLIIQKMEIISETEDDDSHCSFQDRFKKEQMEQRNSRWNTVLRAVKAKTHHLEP

For this assay, the target named is human TRPA1 (Homo sapiens (Human), UniProt O75762). Kind of assay: Measurement of TRPA1 antagonist activity (1): intracellular calcium increase. The class given is cell-based. As to conditions: 293T cells transfected with human TRPA1 expression plasmid; allylisothiocyanate 20 μM stimulation; intracellular calcium fluorescence; read-out: hTRPA1 IC50. The essentials:
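Calcium-flux readout of TRPA1 block: compound given 10 min before 20 μM (final) allylisothiocyanate, fluorescence tracked 5 min. Cells were 293T transiently expressing human TRPA1, dye-loaded 1 hr in HBSS, 20 mM HEPES, pH 7.2. Inhibition scaled between agonist-only and buffer-only responses; IC50 by sigmoid fitting.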
Regarding `O=C(NCc1cccc(OCc2ccc(C(F)(F)F)cc2)c1)[C@@H]1CC(F)(F)CN1S(=O)(=O)c1cc2ccccc2o1` [Example 47, (2S)-1-(benzofuran-2-ylsulfonyl)-4,4-difluoro-N-[[3-[[4-(trifluoromethyl)phenyl]methoxy]-phenyl]methyl]pyrrolidine-2-carboxamide], the IC50 is 24 nM.
As for `O=C(NCc1cccc(-c2ccc(C(F)(F)F)nn2)c1)[C@@H]1CCCN1S(=O)(=O)c1cc2ccccc2o1` [Example 197, (2S)-1-(benzofuran-2-ylsulfonyl)-N-[[3-[6-(trifluoromethyl)pyridazin-3-yl]phenyl]methyl]-pyrrolidine-2-carboxamide], the figure is 3 nM.
As for `C[C@H](NS(=O)(=O)c1cc2cc(F)ccc2o1)C(=O)NCc1ccc(O)c(-c2ncc(C(F)(F)F)cn2)c1` [Example 253, (2S)-2-[(5-fluorobenzofuran-2-yl)sulfonylamino]-N-[[4-hydroxy-3-[5-(trifluoromethyl)pyrimidin-2-yl]phenyl]methyl]propanamide], the figure is 160 nM; as for `C[C@H](NS(=O)(=O)c1cc2cc(F)ccc2o1)C(=O)NCc1ccnc(-c2cnc(C(F)(F)F)nc2)c1` [Example 238, (2S)-2-[(5-fluorobenzofuran-2-yl)sulfonylamino]-N-[[2-[2-(trifluoromethyl)pyrimidin-5-yl]-4-pyridyl]methyl]propanamide], 42 nM; as for `O=C(NC1(c2ccnc(-c3ccc(C(F)(F)F)nc3)c2)CC1)[C@@H]1CCCN1S(=O)(=O)c1cc2ccccc2o1` [Example 218, (2S)-1-(benzofuran-2-ylsulfonyl)-N-[1-[2-[6-(trifluoromethyl)-3-pyridyl]-4-pyridyl]cyclopropyl]-pyrrolidine-2-carboxamide], 96 nM.
As for `CN(C)c1cc(COc2cccc(CNC(=O)[C@@H]3CCCN3S(=O)(=O)c3cc4cc(F)ccc4o3)c2)ccn1` [Example 17, (2S)-N-[[3-[[2-(dimethylamino)-4-pyridyl]methoxy]phenyl]-methyl]-1-(5-fluorobenzofuran-2-yl)sulfonyl-pyrrolidine-2-carboxamide], the concentration for half-maximal inhibition (IC50) was found to be 15 nM.
For `O=C(NCc1cccc(OCc2cccnc2)c1)[C@@H]1CCCN1S(=O)(=O)c1cc2ccccc2o1` [Example 3, (2S)-1-(benzofuran-2-ylsulfonyl)-N-[[3-(3-pyridylmethoxy)phenyl]methyl]pyrrolidine-2-carboxamide] the value was 72 nM; for `O=C(NCc1ccc(COc2ccccc2)cc1)[C@@H]1CCCN1S(=O)(=O)c1cc2ccccc2o1` [Example 58, (2S)-1-(benzofuran-2-ylsulfonyl)-N-[[4-(phenoxymethyl)phenyl]methyl]-pyrrolidine-2-carboxamide], 430 nM; for `O=C(NCc1cccc(OCc2ccccc2)c1)[C@@H]1CCCN1S(=O)(=O)c1cc2cc(F)ccc2o1` [Example 43, (2S)-N-[(3-benzyloxyphenyl)methyl]-1-(5-fluorobenzofuran-2-yl)sulfonyl-pyrrolidine-2-carboxamide], 1.6 nM.
Consider `C[C@H](NS(=O)(=O)c1cc2cc(F)ccc2o1)C(=O)NCc1cc(-c2ccc(C(F)(F)F)cn2)cnn1` [Example 251, (2S)-2-[(5-fluorobenzofuran-2-yl)sulfonylamino]-N-[[5-[5-(trifluoromethyl)-2-pyridyl]pyridazin-3-yl]methyl]propanamide], for which the IC50 is 330 nM.
For the compound `O=C(NCc1ccccc1-c1ccccc1)[C@@H]1CCCN1S(=O)(=O)c1cc2cc(F)ccc2o1` [Example 78, (2S)-1-(5-fluorobenzofuran-2-yl)sulfonyl-N-[(2-phenylphenyl)methyl]pyrrolidine-2-carboxamide], the IC50 was found to be 130 nM.
For the compound `CN(C)c1ccc(-c2cc(CNC(=O)[C@@H]3CCCN3S(=O)(=O)c3cc4ccccc4o3)ccn2)cn1` [Example 125, (2S)-1-(benzofuran-2-ylsulfonyl)-N-[[2-[6-(dimethylamino)-3-pyridyl]-4-pyridyl]methyl]pyrrolidine-2-carboxamide], the half-maximal inhibitory concentration (IC50) was found to be 240 nM.
For `O=C(NCc1cc(-c2ccc(C(F)(F)F)cc2O)ccn1)[C@@H]1CCCN1S(=O)(=O)c1cc2cc(F)ccc2o1` [Example 280, (2S)-1-(5-fluorobenzofuran-2-yl)sulfonyl-N-[[4-[2-hydroxy-4-(trifluoromethyl)phenyl]-2-pyridyl]methyl]pyrrolidine-2-carboxamide] the value was 520 nM; for `O=C(NCc1cc(-c2ccc(C(F)(F)F)nc2)ccn1)[C@@H]1CCCN1S(=O)(=O)c1cc2cc(F)ccc2o1` [Example 149, (2S)-1-(5-fluorobenzofuran-2-yl)sulfonyl-N-[[4-[6-(trifluoromethyl)-3-pyridyl]-2-pyridyl]methyl]pyrrolidine-2-carboxamide], 1.5 nM.
As for `O=C(NCc1ccc(-c2ccc(F)cc2)cc1)[C@@H]1CCCN1S(=O)(=O)c1cc2ccccc2o1` [Example 168, (2S)-1-(benzofuran-2-ylsulfonyl)-N-[[4-(4-fluorophenyl)phenyl]methyl]-pyrrolidine-2-carboxamide], the figure is 180 nM; as for `O=C(NCc1ccnc(-c2ccc(OCC(F)(F)F)cc2)c1)[C@@H]1CCCN1S(=O)(=O)c1cc2ccccc2o1` [Example 204, (2S)-1-(benzofuran-2-ylsulfonyl)-N-[[2-[4-(2,2,2-trifluoroethoxy)phenyl]-4-pyridyl]methyl]pyrrolidine-2-carboxamide], 35 nM.
For `O=C(NCc1cccc(Oc2ccc(C(F)(F)F)cc2)c1)[C@@H]1CCCN1S(=O)(=O)c1cc2cnccc2o1` [Example 269, (2S)-1-furo[3,2-c]pyridin-2-ylsulfonyl-N-[[3-[4-(trifluoromethyl)phenoxy]-phenyl]methyl]pyrrolidine-2-carboxamide] the value was 4.3 nM; for `O=C(NCc1cccc(OCC2CCCOC2)c1)[C@@H]1CCCN1S(=O)(=O)c1cc2cc(F)ccc2o1` (stereo partly drawn) [Example 31, (2S)-1-(5-fluorobenzofuran-2-yl)sulfonyl-N-[[3-(tetrahydropyran-3-ylmethoxy)phenyl]-methyl]pyrrolidine-2-carboxamide], 4.3 nM; for `O=C(NCc1ccnc(-c2ccc(C(F)(F)F)cc2)c1)[C@@H]1CCCN1S(=O)(=O)c1cc2c(F)cccc2o1` [Example 97, (2S)-1-(4-fluorobenzofuran-2-yl)sulfonyl-N-[[2-[4-(trifluoromethyl)phenyl]-4-pyridyl]methyl]pyrrolidine-2-carboxamide], 4 nM.
For the compound `C[C@H](NS(=O)(=O)c1cc2cc(F)ccc2o1)C(=O)NCc1cc(-c2cnc(C(F)(F)F)nc2)ncn1` [Example 248, (2S)-2-[(5-fluorobenzofuran-2-yl)sulfonylamino]-N-[[6-[2-(trifluoromethyl)pyrimidin-5-yl]pyrimidin-4-yl]methyl]propanamide], the IC50 was 20 nM.
As for `O=C(NCc1ccnc(-c2ccc(C(F)(F)F)nc2)c1)[C@@H]1CCCN1S(=O)(=O)c1cc2cc(F)ccc2o1` [Example 133, (2S)-1-(5-fluorobenzofuran-2-yl)sulfonyl-N-[[2-[6-(trifluoromethyl)-3-pyridyl]-4-pyridyl]methyl]pyrrolidine-2-carboxamide], the figure is 0.83 nM.
With `O=C(NCc1cc(C2=CCCCC2)ccn1)[C@@H]1CCCN1S(=O)(=O)c1cc2ccccc2o1` [Example 283, (2S)-1-(benzofuran-2-ylsulfonyl)-N-[[4-(cyclohexen-1-yl)-2-pyridyl]methyl]pyrrolidine-2-carboxamide], the IC50 is 250 nM.
Take `Cn1nc(C(F)(F)F)cc1-c1ccnc(CNC(=O)[C@@H]2CCCN2S(=O)(=O)c2cc3ccccc3o2)c1` [Example 154, (2S)-1-(benzofuran-2-ylsulfonyl)-N-[[4-[2-methyl-5-(trifluoromethyl)pyrazol-3-yl]-2-pyridyl]methyl]pyrrolidine-2-carboxamide]: the half-maximal inhibitory concentration (IC50) was determined as 42 nM.
For `O=C(NCc1cc(-c2ccc(C(F)(F)F)cn2)ccn1)[C@@H]1C=CCN1S(=O)(=O)c1cc2cc(F)ccc2o1` [Example 225, (2S)-1-(5-fluorobenzofuran-2-yl)sulfonyl-N-[[4-[5-(trifluoromethyl)-2-pyridyl]-2-pyridyl]methyl]-2,5-dihydropyrrole-2-carboxamide] the value was 1.3 nM; for `C[C@H](NS(=O)(=O)c1cc2cc(F)ccc2o1)C(=O)NCc1cc(-c2ccc(C(F)(F)F)nn2)ccn1` [Example 244, (2S)-2-[(5-fluorobenzofuran-2-yl)sulfonylamino]-N-[[4-[6-(trifluoromethyl)pyridazin-3-yl]-2-pyridyl]methyl]propanamide], 44 nM; for `C[C@H](NS(=O)(=O)c1cc2cnccc2o1)C(=O)NCc1cc(-c2ccc(C(F)(F)F)cc2)ncn1` [Example 301, (2S)-2-(furo[3,2-c]pyridin-2-ylsulfonylamino)-N-[[6-[4-(trifluoromethyl)phenyl]pyrimidin-4-yl]methyl]propanamide], 30 nM.
For `O=C(NCc1cnnc(-c2ccc(C(F)(F)F)nc2)c1)[C@@H]1CCCN1S(=O)(=O)c1cc2ccccc2o1` [Example 209, (2S)-1-(benzofuran-2-ylsulfonyl)-N-[[6-[6-(trifluoromethyl)-3-pyridyl]pyridazin-4-yl]methyl]pyrrolidine-2-carboxamide] the value was 110 nM.
Consider `O=C(NCc1cccc(OC2CCOCC2)c1)[C@@H]1CCCN1S(=O)(=O)c1cc2cc(F)ccc2o1` [Example 33, (2S)-1-(5-fluorobenzofuran-2-yl)sulfonyl-N-[(3-tetrahydropyran-4-yloxyphenyl)methyl]-pyrrolidine-2-carboxamide], for which the IC50 came to 160 nM.
On to `O=C(NCc1cccc(-c2ccc(OC(F)(F)F)cc2)c1)[C@@H]1CCCN1S(=O)(=O)c1cc2cc(F)ccc2o1` [Example 158, (2S)-1-(5-fluorobenzofuran-2-yl)sulfonyl-N-[[3-[4-(trifluoromethoxy)phenyl]-phenyl]methyl]pyrrolidine-2-carboxamide], for which the IC50 came to 0.83 nM.
